This assay addresses Pim-1 (Homo sapiens (Human), UniProt P11309). The assay can be described thus: Pim kinase binding activity assay (Example 901), PIM-1 enzyme, Caliper microfluidic peptide phosphorylation. The assay is classed as biochemical. The settings on record: 20 pM PIM-1, 10 μM ATP, 1 μM FAM-peptide, 90 minutes at room temperature. In outline: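 The readout was microfluidic mobility-shift separation of a FAM-tagged Pim-specific peptide, excited at 488 nm and read at 530 nm, with Ki calculated from percent conversion. Reactions held 20 pM PIM-1, 1 μM peptide and 10 μM ATP in pH 7.2 HEPES/MgCl2/DTT buffer, ran 90 min at room temperature and were stopped with EDTA.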
Pim-1, sequence (P11309 whole entry): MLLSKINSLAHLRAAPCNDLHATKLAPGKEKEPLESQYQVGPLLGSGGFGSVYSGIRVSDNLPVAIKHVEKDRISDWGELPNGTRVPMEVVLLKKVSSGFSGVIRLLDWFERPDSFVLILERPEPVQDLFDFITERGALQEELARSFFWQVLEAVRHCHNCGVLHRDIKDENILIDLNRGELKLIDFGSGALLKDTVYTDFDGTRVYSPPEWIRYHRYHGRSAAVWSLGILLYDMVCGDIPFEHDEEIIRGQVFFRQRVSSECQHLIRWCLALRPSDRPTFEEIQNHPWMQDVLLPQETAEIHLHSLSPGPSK
As for `N[C@H]1CCC[C@@H](Nc2cccc(-c3n[nH]c4cnc(-c5cccnc5)cc34)n2)C1` [Example 340, (1R,3S)-N1-(6-(5-(pyridin-3-yl)-1H-pyrazolo[3,4-c]pyridin-3-yl)pyridin-2-yl)cyclohexane-1,3-diamine], affinity was put at a Ki of 0.044 nM.
The compound `N[C@@H]1CCC[C@H](Nc2cccc(-c3n[nH]c4cnc(-c5cccnc5)cc34)n2)C1` [Example 341, (1S,3R)-N1-(6-(5-(pyridin-3-yl)-1H-pyrazolo[3,4-c]pyridin-3-yl)pyridin-2-yl)cyclohexane-1,3-diamine] had a Ki of 0.077 nM.
In turn, `C#Cc1ccc(-c2n[nH]c3cnc(-c4cccnc4)cc23)nc1N1CCC[C@H](N)C1` [Example 342, (S)-1-(3-ethynyl-6-(5-(pyridin-3-yl)-1H-pyrazolo[3,4-c]pyridin-3-yl)pyridin-2-yl)piperidin-3-amine] registered an inhibitory constant (Ki) of 0.01 nM.
In turn, `C[C@]1(N)CCCN(c2cccc(-c3n[nH]c4cnc(-c5cccnc5)cc34)n2)C1` [Example 343, (S)-3-methyl-1-(6-(5-(pyridin-3-yl)-1H-pyrazolo[3,4-c]pyridin-3-yl)pyridin-2-yl)piperidin-3-amine] yielded a Ki of 0.045 nM.
Compound `NC(=O)[C@@H]1CCCN1c1ccc(-c2n[nH]c3cnc(-c4cccnc4)cc23)nc1` [Example 344, (S)-1-(6-(5-(pyridin-3-yl)-1H-pyrazolo[3,4-c]pyridin-3-yl)pyridin-3-yl)pyrrolidine-2-carboxamide] registered a Ki of 3.9 nM.
Compound `N[C@H]1CCCN(c2cccc(-c3n[nH]c4cnc(N5CCNC(=O)C5)cc34)n2)C1` [Example 345, (S)-4-(3-(6-(3-aminopiperidin-1-yl)pyridin-2-yl)-1H-pyrazolo[3,4-c]pyridin-5-yl)piperazin-2-one] yielded a Ki of 13.7 nM.
With `O=C1CNCCN1c1cc2c(-c3cccc(N4CCNCC4)n3)n[nH]c2cn1` [Example 346, 1-(3-(6-(piperazin-1-yl)pyridin-2-yl)-1H-pyrazolo[3,4-c]pyridin-5-yl)piperazin-2-one], affinity was put at a Ki of 219 nM.
`C[C@@]1(N)CCCN(c2cccc(-c3n[nH]c4cnc(-c5cccnc5)cc34)n2)C1` [Example 347, (R)-3-methyl-1-(6-(5-(pyridin-3-yl)-1H-pyrazolo[3,4-c]pyridin-3-yl)pyridin-2-yl)piperidin-3-amine] gave a Ki of 0.11 nM.
`Fc1ccccc1-c1n[nH]c2cnc(-c3cncs3)cc12` [Example 348, 5-(3-(2-fluorophenyl)-1H-pyrazolo[3,4-c]pyridin-5-yl)thiazole] displayed an inhibitory constant (Ki) of 26.8 nM.
`CN1CCN(c2cc3c(-c4ccccn4)n[nH]c3cn2)CC1=O` [Example 351, 1-methyl-4-(3-(pyridin-2-yl)-1H-pyrazolo[3,4-c]pyridin-5-yl)piperazin-2-one] returned a Ki of 4800 nM.
As for `N[C@@H]1CCC[C@@H](Nc2cccc(-c3n[nH]c4cnc(-c5cccnc5)cc34)n2)C1` [Example 352, (1R,3R)-N1-(6-(5-(pyridin-3-yl)-1H-pyrazolo[3,4-c]pyridin-3-yl)pyridin-2-yl)cyclohexane-1,3-diamine], the figure is 0.025 nM; as for `N[C@H]1CCC[C@H](Nc2cccc(-c3n[nH]c4cnc(-c5cccnc5)cc34)n2)C1` [Example 353, (1S,3S)-N1-(6-(5-(pyridin-3-yl)-1H-pyrazolo[3,4-c]pyridin-3-yl)pyridin-2-yl)cyclohexane-1,3-diamine], 0.397 nM; as for `[O-][n+]1cc(C(F)(F)F)ccc1-c1n[nH]c2cnc(-c3cccnc3)cc12` [Example 354], 97.9 nM.
As for `CN1C(=O)CN(c2cc3c(-c4ccccc4)n[nH]c3cn2)C1=O` [Example 355, 3-methyl-1-(3-phenyl-1H-pyrazolo[3,4-c]pyridin-5-yl)imidazolidine-2,4-dione], the figure is 809 nM.
For `c1cc(-c2n[nH]c3cnc(-c4cncs4)cc23)nc(N2CCCCC2)c1` [Example 358, 5-(3-(6-(piperidin-1-yl)pyridin-2-yl)-1H-pyrazolo[3,4-c]pyridin-5-yl)thiazole], the Ki turned out to be 1.22 nM.
Turning to `c1cc(-c2n[nH]c3cnc(-c4cncs4)cc23)nc(N2CCNCC2)c1` [Example 359, 5-(3-(6-(piperazin-1-yl)pyridin-2-yl)-1H-pyrazolo[3,4-c]pyridin-5-yl)thiazole], the affinity corresponds to a Ki of 0.074 nM.
`Cn1cc(-c2cc3c(-c4ccnc(N5CCCCC5)n4)n[nH]c3cn2)cn1` [Example 360, 5-(1-methyl-1H-pyrazol-4-yl)-3-(2-(piperidin-1-y1)pyrimidin-4-yl)-1H-pyrazolo[3,4-c]pyridine] displayed a Ki of 0.366 nM.
In turn, `CCCCc1ccc(-c2n[nH]c3cnc(-c4cccnc4)cc23)nc1N1CCC[C@H](N)C1` [Example 362, (S)-1-(3-butyl-6-(5-(pyridin-3-yl)-1H-pyrazolo[3,4-c]pyridin-3-yl)pyridin-2-yl)piperidin-3-amine] displayed a Ki of 0.079 nM.
As for `c1cc(-c2n[nH]c3cnc(-n4ccnc4)cc23)nc(N2CCCCC2)c1` [Example 363, 5-(1H-imidazol-1-yl)-3-(6-(piperidin-1-yl)pyridin-2-yl)-1H-pyrazolo[3,4-c]pyridine], the figure is 2.41 nM.
In the case of `Cn1cc(-c2cc3c(-c4ccnc(N5CCC[C@@H](N)C5)n4)n[nH]c3cn2)cn1` [Example 364, (R)-1-(4-(5-(1-methyl-1H-pyrazol-4-yl)-1H-pyrazolo[3,4-c]pyridin-3-yl)pyrimidin-2-yl)piperidin-3-amine] it was 0.052 nM.
`Cn1cc(-c2cc3c(-c4ccnc(N5CCC[C@H](N)C5)n4)n[nH]c3cn2)cn1` [Example 365, (S)-1-(4-(5-(1-methyl-1H-pyrazol-4-yl)-1H-pyrazolo[3,4-c]pyridin-3-yl)pyrimidin-2-yl)piperidin-3-amine] displayed a Ki of 0.0941 nM.
Turning to `Cc1ccc(-c2cc3c(-c4cccc(N5CCNCC5)n4)n[nH]c3cn2)cn1` [Example 367], the Ki is 0.217 nM.
`c1cc(-c2n[nH]c3cnc(-n4ccnc4)cc23)nc(N2CCNCC2)c1` [Example 368, 5-(1H-imidazol-1-yl)-3-(6-(piperazin-1-yl)pyridin-2-yl)-1H-pyrazolo[3,4-c]pyridine] came in with a Ki of 1.82 nM.
As for `N[C@@H]1CCCN(c2cccc(-c3n[nH]c4cnc(-n5ccnc5)cc34)n2)C1` [Example 369, (R)-1-(6-(5-(1H-imidazol-1-yl)-1H-pyrazolo[3,4-c]pyridin-3-yl)pyridin-2-yl)piperidin-3-amine], the figure is 1.13 nM; as for `N[C@@H]1CCCN(c2cccc(-c3n[nH]c4cnc(N5CCOC5=O)cc34)n2)C1` [Example 370, (R)-3-(3-(6-(3-aminopiperidin-1-yl)pyridin-2-yl)-1H-pyrazolo[3,4-c]pyridin-5-yl)oxazolidin-2-one], 180 nM; as for `CN1C(=O)CN(c2cc3c(-c4cccc(N5CCNCC5)n4)n[nH]c3cn2)C1=O` [Example 371, 3-methyl-1-(3-(6-(piperazin-1-yl)pyridin-2-yl)-1H-pyrazolo[3,4-c]pyridin-5-yl)imidazolidine-2,4-dione], 31.1 nM.
Consider `CCn1cc(-c2cc3c(-c4cccc(N5CCN(C)CC5)n4)n[nH]c3cn2)cn1` [Example 372, 5-(1-ethyl-1H-pyrazol-4-yl)-3-(6-(4-methylpiperazin-1-yl)pyridin-2-yl)-1H-pyrazolo[3,4-c]pyridine], for which the Ki amounted to 0.268 nM.
As for `O=C1OCCN1c1cc2c(-c3cccc(N4CCCCC4)n3)n[nH]c2cn1` [Example 373, 3-(3-(6-(piperidin-1-yl)pyridin-2-yl)-1H-pyrazolo[3,4-c]pyridin-5-yl)oxazolidin-2-one], the figure is 483 nM; as for `N[C@H]1CCCN(c2cccc(-c3n[nH]c4cnc(N5CCOC5=O)cc34)n2)C1` [Example 374, (S)-3-(3-(6-(3-aminopiperidin-1-yl)pyridin-2-yl)-1H-pyrazolo[3,4-c]pyridin-5-yl)oxazolidin-2-one], 85 nM; as for `CCCn1cc(-c2cc3c(-c4cccc(N5CCNCC5)n4)n[nH]c3cn2)cn1` [Example 375, 3-(6-(piperazin-1-yl)pyridin-2-yl)-5-(1-propyl-1H-pyrazol-4-yl)-1H-pyrazolo[3,4-c]pyridine], 0.039 nM.
Regarding `Fc1ccc(-c2cc3c(-c4cccc(N5CCNCC5)n4)n[nH]c3cn2)cn1` [Example 378, 5-(6-fluoropyridin-3-yl)-3-(6-(piperazin-1-yl)pyridin-2-yl)-1H-pyrazolo[3,4-c]pyridine], the affinity corresponds to a Ki of 0.796 nM.
For the compound `CC(C)(CN)Cn1cc(-c2n[nH]c3cnc(-c4cccnc4)cc23)ccc1=O` [Example 379, 1-(3-amino-2,2-dimethylpropyl)-5-(5-(pyridin-3-yl)-1H-pyrazolo[3,4-c]pyridin-3-yl)pyridin-2(1H)-one], the Ki worked out at 1.29 nM.
As to `N[C@H]1CCCN(c2cccc(-c3n[nH]c4cnc(-n5ccnc5)cc34)n2)C1` [Example 380, (S)-1-(6-(5-(1H-imidazol-1-yl)-1H-pyrazolo[3,4-c]pyridin-3-yl)pyridin-2-yl)piperidin-3-amine], affinity was put at a Ki of 0.523 nM.
Compound `Cc1cncc(-c2cc3c(-c4cccc(N5CCNCC5)n4)n[nH]c3cn2)c1` [Example 384, 5-(5-methylpyridin-3-yl)-3-(6-(piperazin-1-yl)pyridin-2-yl)-1H-pyrazolo[3,4-c]pyridine] showed a Ki of 0.041 nM.
In the case of `CCn1cc(-c2cc3c(-c4cccc(N5C[C@@H](N)C[C@@H](F)C5)n4)n[nH]c3cn2)cn1` [Example 385, (3S,5R)-1-(6-(5-(1-ethyl-1H-pyrazol-4-yl)-1H-pyrazolo[3,4-c]pyridin-3-yl)pyridin-2-yl)-5-fluoropiperidin-3-amine] it was 0.131 nM; in that of `Cn1cc(-c2cc3c(-c4ccc(Br)c(N5CC(N6CCS(=O)(=O)CC6)C5)n4)n[nH]c3cn2)cn1` [Example 387, 4-(1-(3-bromo-6-(5-(1-methyl-1H-pyrazol-4-yl)-1H-pyrazolo[3,4-c]pyridin-3-yl)pyridin-2-yl)azetidin-3-yl)-1,1-dioxothiomorpholine], 1.59 nM.

The term Ki denotes the equilibrium dissociation constant of an inhibitor or competing ligand from its target. High values mean lower affinity, low ones higher affinity.

The record behind these values is US9260425B2 (Genetech, Inc., priority 2011, dated 2016).
